Test results: patent US10040781B2, “Tank-binding kinase inhibitor compounds” (Gilead Sciences, Inc., priority 2014, dated 2018)
Structures can show the parent of a compound that is named as a salt.

Legend:
hJAK2 = hJAK2 (Homo sapiens (Human), UniProt O60674); assay: hJAK2 LANCE TR-FRET enzymatic assay; assay type: biochemical; conditions: read-out: JAK2 IC50
IKKε = IKKε (Homo sapiens (Human), UniProt Q14164); assay: IKKε TR-FRET enzymatic assay; assay type: biochemical; conditions: TR-FRET, 2×Km ATP; geometric mean of minimum four determinations; read-out: IKKe IC50
TBK1 = TBK1 (Homo sapiens (Human), UniProt Q9UHD2); assay: TBK1 TR-FRET enzymatic assay;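 also: phosphorylation of a biotinylated Ser/Thr peptide by purified full-length recombinant TBK1, read by TR-FRET after 240 min at 25 °C, IC50 is the geometric mean of at least four runs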
Chain of TBK1 (Q9UHD2 whole entry): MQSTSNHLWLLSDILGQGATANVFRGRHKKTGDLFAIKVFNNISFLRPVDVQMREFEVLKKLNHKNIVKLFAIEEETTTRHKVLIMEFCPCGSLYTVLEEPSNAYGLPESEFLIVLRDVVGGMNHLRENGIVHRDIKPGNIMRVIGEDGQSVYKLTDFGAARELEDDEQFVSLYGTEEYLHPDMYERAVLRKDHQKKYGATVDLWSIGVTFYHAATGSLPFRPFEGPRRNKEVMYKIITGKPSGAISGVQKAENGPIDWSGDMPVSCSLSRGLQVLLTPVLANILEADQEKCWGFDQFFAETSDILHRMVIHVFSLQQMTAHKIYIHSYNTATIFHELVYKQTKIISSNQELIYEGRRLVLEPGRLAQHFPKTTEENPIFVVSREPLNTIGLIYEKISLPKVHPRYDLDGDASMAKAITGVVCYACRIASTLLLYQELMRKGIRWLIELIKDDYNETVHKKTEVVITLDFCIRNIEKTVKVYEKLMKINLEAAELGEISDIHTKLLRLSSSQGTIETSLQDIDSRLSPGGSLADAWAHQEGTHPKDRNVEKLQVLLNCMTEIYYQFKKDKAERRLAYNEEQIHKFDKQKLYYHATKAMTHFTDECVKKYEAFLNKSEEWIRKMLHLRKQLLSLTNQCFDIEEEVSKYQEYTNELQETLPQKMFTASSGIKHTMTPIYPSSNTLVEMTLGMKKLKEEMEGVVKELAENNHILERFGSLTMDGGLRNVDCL

Chain of IKKε (Q14164 whole entry): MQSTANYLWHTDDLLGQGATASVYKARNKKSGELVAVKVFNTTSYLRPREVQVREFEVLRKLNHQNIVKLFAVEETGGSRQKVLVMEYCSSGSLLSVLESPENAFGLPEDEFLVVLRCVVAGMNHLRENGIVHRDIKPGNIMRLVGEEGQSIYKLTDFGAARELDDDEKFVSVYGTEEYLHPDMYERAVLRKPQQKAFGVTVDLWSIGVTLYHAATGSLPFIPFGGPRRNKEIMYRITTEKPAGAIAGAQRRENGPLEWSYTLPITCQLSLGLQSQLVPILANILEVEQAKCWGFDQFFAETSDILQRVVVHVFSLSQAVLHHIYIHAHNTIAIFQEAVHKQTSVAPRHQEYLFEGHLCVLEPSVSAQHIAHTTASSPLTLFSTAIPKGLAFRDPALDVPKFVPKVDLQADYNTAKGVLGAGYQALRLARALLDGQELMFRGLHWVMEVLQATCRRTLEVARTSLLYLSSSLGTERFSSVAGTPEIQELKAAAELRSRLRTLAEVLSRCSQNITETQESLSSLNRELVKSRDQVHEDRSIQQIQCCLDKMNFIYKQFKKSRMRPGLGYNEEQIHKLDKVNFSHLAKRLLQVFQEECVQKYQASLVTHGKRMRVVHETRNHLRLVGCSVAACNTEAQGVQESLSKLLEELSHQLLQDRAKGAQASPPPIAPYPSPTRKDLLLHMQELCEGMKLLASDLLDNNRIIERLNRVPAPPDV
Chain of hJAK2 (O60674 whole entry): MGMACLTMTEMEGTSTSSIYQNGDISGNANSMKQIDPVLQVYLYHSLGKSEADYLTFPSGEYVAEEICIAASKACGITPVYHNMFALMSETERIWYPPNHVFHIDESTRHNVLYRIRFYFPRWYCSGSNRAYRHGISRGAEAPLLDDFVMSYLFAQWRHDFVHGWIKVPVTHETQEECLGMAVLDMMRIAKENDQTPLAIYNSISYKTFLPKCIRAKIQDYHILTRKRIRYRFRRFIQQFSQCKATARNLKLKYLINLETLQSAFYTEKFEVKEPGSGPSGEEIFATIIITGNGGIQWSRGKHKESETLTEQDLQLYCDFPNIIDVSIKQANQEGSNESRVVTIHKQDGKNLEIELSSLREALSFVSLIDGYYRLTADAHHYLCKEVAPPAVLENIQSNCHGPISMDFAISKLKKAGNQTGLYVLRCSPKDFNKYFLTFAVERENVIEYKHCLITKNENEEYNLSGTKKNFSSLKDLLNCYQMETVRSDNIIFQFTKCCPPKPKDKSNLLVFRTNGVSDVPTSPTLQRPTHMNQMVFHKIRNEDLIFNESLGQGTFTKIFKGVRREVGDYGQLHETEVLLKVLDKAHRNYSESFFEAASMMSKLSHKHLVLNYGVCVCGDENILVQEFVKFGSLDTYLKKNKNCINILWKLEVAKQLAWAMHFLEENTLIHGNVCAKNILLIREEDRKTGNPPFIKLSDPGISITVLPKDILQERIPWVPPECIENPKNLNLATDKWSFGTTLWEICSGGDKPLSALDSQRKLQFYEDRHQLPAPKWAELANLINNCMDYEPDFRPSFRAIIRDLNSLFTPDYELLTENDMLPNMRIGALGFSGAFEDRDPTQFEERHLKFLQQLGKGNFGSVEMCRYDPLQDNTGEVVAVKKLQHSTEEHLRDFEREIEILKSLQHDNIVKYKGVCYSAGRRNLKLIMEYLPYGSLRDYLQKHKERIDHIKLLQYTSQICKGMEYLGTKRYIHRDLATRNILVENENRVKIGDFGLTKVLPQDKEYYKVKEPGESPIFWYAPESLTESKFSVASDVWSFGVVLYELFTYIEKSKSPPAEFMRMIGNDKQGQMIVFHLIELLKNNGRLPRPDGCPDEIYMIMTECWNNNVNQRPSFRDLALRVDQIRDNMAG

`C[C@H](O)C(=O)N1CC[C@H](Oc2ccc(-c3ncnc(Nc4ccc(-c5ccn(C)c(=O)c5)cc4)n3)cc2C#N)[C@H](F)C1` [Example 476, 2-(((3R,4S)-3-fluoro-1-((S)-2-hydroxypropanoyl)piperidin-4-yl)oxy)-5-(4-((4-(1-methyl-2-oxo-1,2-dihydropyridin-4-yl)phenyl)amino)-1,3,5-triazin-2-yl)benzonitrile] showed an IC50 (hJAK2) of no less than 1000 nM, an IC50 (IKKε) of 3 nM and an IC50 (TBK1) of 3 nM.

For `N#Cc1cc(-c2ncnc(Nc3ccc(N4CCN(C5COC5)CC4)cc3)n2)ccc1O[C@H]1CCN(C(=O)c2cocn2)C[C@H]1F` [Example 477, 2-(((3R,4S)-3-fluoro-1-(oxazole-4-carbonyl)piperidin-4-yl)oxy)-5-(4-((4-(4-(oxetan-3-yl)piperazin-1-yl)phenyl)amino)-1,3,5-triazin-2-yl)benzonitrile], the IC50 (hJAK2) was 526 nM, the IC50 (IKKε) was 2 nM and the IC50 (TBK1) was 3 nM.

Work on `N#Cc1cc(-c2ncnc(Nc3ccc(N4CCN(C5COC5)CC4)cc3)n2)ccc1O[C@H]1CCN(C(=O)NO)C[C@H]1F` [Example 478, (3R,4S)-4-(2-cyano-4-(4-((4-(4-(oxetan-3-yl)piperazin-1-yl)phenyl)amino)-1,3,5-triazin-2-yl)phenoxy)-3-fluoro-N-hydroxypiperidine-1-carboxamide] yielded an IC50 (hJAK2) of 135 nM, an IC50 (IKKε) of 1 nM and an IC50 (TBK1) of 3 nM.

In the case of `COc1cc(Nc2ncnc(-c3ccc(O[C@H]4CCN(C(=O)[C@@H](O)CO)CC4(F)F)c(C#N)c3)n2)ccn1` [Example 479, 2-(((S)-1-((S)-2,3-dihydroxypropanoyl)-3,3-difluoropiperidin-4-yl)oxy)-5-(4-((2-methoxypyridin-4-yl)amino)-1,3,5-triazin-2-yl)benzonitrile], the IC50 (hJAK2) is reported as no less than 1000 nM, the IC50 (IKKε) is reported as 1 nM and the IC50 (TBK1) is reported as 2 nM.

`N#Cc1cc(-c2ncnc(Nc3ccc(N4CCN(C5COC5)CC4)cc3)n2)ccc1O[C@H]1CCN(c2ccccn2)C[C@H]1F` [Example 480, 2-(((3R,4S)-3-fluoro-1-(pyridin-2-yl)piperidin-4-yl)oxy)-5-(4-((4-(4-(oxetan-3-yl)piperazin-1-yl)phenyl)amino)-1,3,5-triazin-2-yl)benzonitrile] gave an IC50 (hJAK2) of no less than 1000 nM, an IC50 (IKKε) of 180 nM and an IC50 (TBK1) of 47 nM.

In the case of `CS(=N)(=O)c1ccc(Nc2ncnc(-c3ccc(O[C@H]4CCN(C=O)CC4(F)F)c(C#N)c3)n2)cc1` (stereo partly drawn) [Example 482, 2-(((S)-3,3-difluoro-1-formylpiperidin-4-yl)oxy)-5-(4-((4-(S-methylsulfonimidoyl)phenyl)amino)-1,3,5-triazin-2-yl)benzonitrile], the IC50 (hJAK2) is reported as 221 nM, the IC50 (IKKε) is reported as 7 nM and the IC50 (TBK1) is reported as 5 nM.

With `COc1cc(Nc2ncnc(-c3ccc(O[C@H]4CCN(C(=O)[C@H](C)O)C[C@H]4F)c(C#N)c3)n2)ccc1S(C)(=O)=O` [Example 483, 2-(((3R,4S)-3-fluoro-1-((S)-2-hydroxypropanoyl)piperidin-4-yl)oxy)-5-(4-((3-methoxy-4-(methylsulfonyl)phenyl)amino)-1,3,5-triazin-2-yl)benzonitrile] the IC50 (hJAK2) was no less than 1000 nM, the IC50 (IKKε) was 6 nM and the IC50 (TBK1) was 8 nM.

In the case of `CS(=O)(=O)c1ccc(-c2ncnc(Nc3ccc(N4CCN(C5COC5)CC4)cc3)n2)cc1` [Example 484, 4-(4-(methylsulfonyl)phenyl)-N-(4-(4-(oxetan-3-yl)piperazin-1-yl)phenyl)-1,3,5-triazin-2-amine, trifluoroacetic acid salt], the IC50 (hJAK2) is reported as 837 nM, the IC50 (IKKε) is reported as no less than 1000 nM and the IC50 (TBK1) is reported as 1000 nM.

With `Cc1cc(Nc2ncnc(-c3ccc(O[C@H]4CCN(C(=O)c5cn(C)nn5)C[C@H]4F)c(C#N)c3)n2)ccc1C1CCN(C)CC1` [Example 485, 2-(((3R,4S)-3-fluoro-1-(1-methyl-1H-1,2,3-triazole-4-carbonyl)piperidin-4-yl)oxy)-5-(4-((3-methyl-4-(1-methylpiperidin-4-yl)phenyl)amino)-1,3,5-triazin-2-yl)benzonitrile] the IC50 (hJAK2) was 576 nM, the IC50 (IKKε) was 1 nM and the IC50 (TBK1) was 3 nM.

For `C[C@H](O)C(=O)N1CC[C@H](Oc2ccc(-c3ncnc(Nc4cccc(C(C)(C)O)c4)n3)cc2C#N)[C@H](F)C1` [Example 486, 2-(((3R,4S)-3-fluoro-1-((S)-2-hydroxypropanoyl)piperidin-4-yl)oxy)-5-(4-((3-(2-hydroxypropan-2-yl)phenyl)amino)-1,3,5-triazin-2-yl)benzonitrile], the IC50 (hJAK2) was 767 nM, the IC50 (IKKε) was 5 nM and the IC50 (TBK1) was 3 nM.

In the case of `Cc1cc(Nc2ncnc(-c3ccc(O[C@H]4CCN(C(=O)[C@H](C)O)C[C@H]4F)c(C#N)c3)n2)ccc1C1CCN(C)CC1` [Example 487, 2-(((3R,4S)-3-fluoro-1-((S)-2-hydroxypropanoyl)piperidin-4-yl)oxy)-5-(4-((3-methyl-4-(1-methylpiperidin-4-yl)phenyl)amino)-1,3,5-triazin-2-yl)benzonitrile], the IC50 (hJAK2) is reported as 324 nM, the IC50 (IKKε) is reported as 1 nM and the IC50 (TBK1) is reported as 3 nM.

`Cc1cc(Nc2ncnc(-c3ccc(O[C@H]4CCN(C(=O)CC#N)C[C@H]4F)c(C#N)c3)n2)ccc1C1CCN(C)CC1` [Example 488, 2-(((3R,4S)-1-(2-cyanoacetyl)-3-fluoropiperidin-4-yl)oxy)-5-(4-((3-methyl-4-(1-methylpiperidin-4-yl)phenyl)amino)-1,3,5-triazin-2-yl)benzonitrile] gave an IC50 (hJAK2) of 131 nM, an IC50 (IKKε) of 1 nM and an IC50 (TBK1) of 4 nM.

`COCC(=O)N1CC[C@H](Oc2ccc(-c3ncnc(Nc4ccc(C5CCN(C)CC5)c(C)c4)n3)cc2C#N)[C@H](F)C1` [Example 489, 2-(((3R,4S)-3-fluoro-1-(2-methoxyacetyl)piperidin-4-yl)oxy)-5-(4-((3-methyl-4-(1-methylpiperidin-4-yl)phenyl)amino)-1,3,5-triazin-2-yl)benzonitrile] was tested, and the IC50 (hJAK2) was 183 nM, the IC50 (IKKε) was 1 nM and the IC50 (TBK1) was 4 nM.

Work on `N#Cc1cc(-c2ncnc(Nc3ccc(N4CCN(C5COC5)CC4)cc3)n2)ccc1OCC1(C#N)COC1` [Example 491, 3-((2-cyano-4-(4-((4-(4-(oxetan-3-yl)piperazin-1-yl)phenyl)amino)-1,3,5-triazin-2-yl)phenoxy)methyl)oxetane-3-carbonitrile] yielded an IC50 (hJAK2) of 216 nM, an IC50 (IKKε) of 33 nM and an IC50 (TBK1) of 25 nM.

In the case of `COCC(=O)N1CC[C@H](Oc2ccc(-c3ncnc(Nc4ccc(C5CCN(C=O)CC5)c(C)c4)n3)cc2C#N)[C@H](F)C1` [Example 492, 2-(((3R,4S)-3-fluoro-1-(2-methoxyacetyl)piperidin-4-yl)oxy)-5-(4-((4-(1-formylpiperidin-4-yl)-3-methylphenyl)amino)-1,3,5-triazin-2-yl)benzonitrile], the IC50 (hJAK2) is reported as 482 nM, the IC50 (IKKε) is reported as 1 nM and the IC50 (TBK1) is reported as 2 nM.

`Cc1cc(Nc2ncnc(-c3ccc(O[C@H]4CCN(C(=O)[C@H](C)O)C[C@H]4F)c(C#N)c3)n2)ccc1C1CCN(C=O)CC1` [Example 493, 2-(((3R,4S)-3-fluoro-1-((S)-2-hydroxypropanoyl)piperidin-4-yl)oxy)-5-(4-((4-(1-formylpiperidin-4-yl)-3-methylphenyl)amino)-1,3,5-triazin-2-yl)benzonitrile] was tested, and the IC50 (hJAK2) was 782 nM, the IC50 (IKKε) was 1 nM and the IC50 (TBK1) was 2 nM.

`N#CCC(=O)Nc1ccc(-c2ncnc(Nc3ccc(N4CCN(C5COC5)CC4)cc3)n2)cc1C#N` [Example 494, 2-cyano-N-(2-cyano-4-(4-((4-(4-(oxetan-3-yl)piperazin-1-yl)phenyl)amino)-1,3,5-triazin-2-yl)phenyl)acetamide] was tested, and the IC50 (hJAK2) was 12 nM, the IC50 (IKKε) was 29 nM and the IC50 (TBK1) was 19 nM.

`CCC(=O)Nc1ccc(-c2ncnc(Nc3ccc(N4CCN(C5COC5)CC4)cc3)n2)cc1C#N` [Example 495, N-(2-cyano-4-(4-((4-(4-(oxetan-3-yl)piperazin-1-yl)phenyl)amino)-1,3,5-triazin-2-yl)phenyl)propionamide] showed an IC50 (hJAK2) of 109 nM, an IC50 (IKKε) of 119 nM and an IC50 (TBK1) of 40 nM.

`N#Cc1cc(-c2ncnc(Nc3ccc(N4CCN(C5COC5)CC4)cc3)n2)ccc1NC(=O)CC(F)(F)F` [Example 496, N-(2-cyano-4-(4-((4-(4-(oxetan-3-yl)piperazin-1-yl)phenyl)amino)-1,3,5-triazin-2-yl)phenyl)-3,3,3-trifluoropropanamide] was tested, and the IC50 (hJAK2) was 8 nM, the IC50 (IKKε) was 8 nM and the IC50 (TBK1) was 6 nM.

With `COc1cc(Nc2ncnc(-c3ccc(O[C@H]4CCN(C(=O)[C@H](C)O)C[C@H]4F)c(C#N)c3)n2)ccc1N1CCN(C)C[C@@H]1C` [Example 499, 5-(4-((4-((S)-2,4-dimethylpiperazin-1-yl)-3-methoxyphenyl)amino)-1,3,5-triazin-2-yl)-2-(((3R,4S)-3-fluoro-1-((S)-2-hydroxypropanoyl)piperidin-4-yl)oxy)benzonitrile] the IC50 (hJAK2) was 79 nM, the IC50 (IKKε) was 1 nM and the IC50 (TBK1) was 2 nM.

`CCn1cc(Nc2ncnc(-c3ccc(O[C@H]4CCN(C(=O)CO)C[C@H]4F)c(C#N)c3)n2)nn1` [Example 502, 5-(4-((1-ethyl-1H-1,2,3-triazol-4-yl)amino)-1,3,5-triazin-2-yl)-2-(((3R,4S)-3-fluoro-1-(2-hydroxyacetyl)piperidin-4-yl)oxy)benzonitrile] was tested, and the IC50 (hJAK2) was no less than 1000 nM, the IC50 (IKKε) was 29 nM and the IC50 (TBK1) was 28 nM.

Compound `CCn1ncc(Nc2ncnc(-c3ccc(O[C@H]4CCN(C(=O)CO)C[C@H]4F)c(C#N)c3)n2)n1` [Example 503, 5-(4-((2-ethyl-2H-1,2,3-triazol-4-yl)amino)-1,3,5-triazin-2-yl)-2-(((3R,4S)-3-fluoro-1-(2-hydroxyacetyl)piperidin-4-yl)oxy)benzonitrile] has an IC50 (hJAK2) of no less than 1000 nM, an IC50 (IKKε) of 20 nM and an IC50 (TBK1) of 7 nM.

For `N#Cc1cc(-c2ncnc(Nc3ccc(N4CCN(C5COC5)CC4)cc3)n2)ccc1O[C@H]1CCN(C(=O)[C@@H]2CCCO2)C[C@H]1F` [Example 504, 2-(((3R,4S)-3-fluoro-1-((S)-tetrahydrofuran-2-carbonyl)piperidin-4-yl)oxy)-5-(4-((4-(4-(oxetan-3-yl)piperazin-1-yl)phenyl)amino)-1,3,5-triazin-2-yl)benzonitrile], the IC50 (hJAK2) was no less than 1000 nM, the IC50 (IKKε) was 5 nM and the IC50 (TBK1) was 4 nM.
